This note sets out measurements from PubChem BioAssay (NCI).

Common to all, as to assay: NCI tumour cell line growth inhibition, 48 h
Experiment [1] relates to SF-539 CNS.
For experiment [2], the system named is MCF7 breast.
Experiment [3] has as its system K-562 leukemia.
Experiment [4] relates to RXF 393 renal.
The test system of experiment [5] is HS 578T breast.
Experiment [6] concerns 786-0 renal.
Experiment [7] has as its system SR leukemia.
Experiment [8] deals with OVCAR-4 ovarian.
In experiment [9] the test system is SF-295 CNS.
Experiment [10] relates to COLO 205 colon.

“And” between values parts separate entries of the source, which are not always exact repeats. Equal entries are not always repeated.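 96-well plates; 48 h exposure; 5 concentrations. Endpoints by linear interpolation between flanking doses. Not reached: highest tested concentration assigned. At the GI50, growth is halved. TGI: concentration producing complete growth inhibition.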 Bounds are passed on as bounds.

For the compound `Nc1cccc2c1CN(C1CCC(=O)NC1=O)C2=O` (stereo not drawn), the GI50 in experiment [1], in experiment [2], in [3], in experiment [4], in experiment [5] and in [6] was > 100 µM throughout. The GI50 in experiment [7], in [8], in [9] and in experiment [10] was > 100 µM in each case. Further, the TGI in experiment [1], in experiment [2], in [3], in experiment [4], in experiment [5] and in experiment [6] was > 100 µM throughout. Also, the TGI in experiment [7], in [8], in experiment [9] and in experiment [10] was > 100 µM throughout.

As to `O=C(N/N=C/c1ccncc1)c1ccc(C(F)(F)F)nc1Nc1cccc(C(F)(F)F)c1`, the GI50 was 2.6 µM in [1]; 2.27 µM in [2]; 2.69 µM in experiment [3]; 1.51 µM in experiment [4]; 2.02 µM in [5]; 1.29 µM in experiment [6]. Besides, the GI50 in [7] was 0.271 µM; in experiment [8], 0.808 µM; in experiment [9] it was 1.37 µM; in experiment [10] it was 2.57 µM. In addition, the TGI in [1] is 9.5 µM; in experiment [2], 8.52 µM; in [3], 11.8 µM; in [4], 5.28 µM; in experiment [5], 8.51 µM; in experiment [6], 7.55 µM. Besides, the TGI in [7] came out at 1.74 µM; in experiment [8], 7.99 µM; in experiment [9], 3.91 µM; in experiment [10], 7.51 µM.

For the compound `Cc1cn(C2CC(N=[N+]=[N-])C(CO)O2)c(=O)[nH]c1=O` (stereo not drawn), the GI50 is 50.1 µM in experiment [2], > 1000 µM in experiment [6], > 1000 µM in experiment [8] and 433 µM in experiment [10]. Further, the TGI in experiment [2], in [3], in experiment [5], in experiment [6], in [7] and in experiment [8] was > 1000 µM each time. For the same compound, the TGI in [10] was > 1000 µM.

On to `N#Cc1ccc(N2Cc3cc(Cl)ccc3OC3=C2C(=O)N(Cc2ccc(F)cc2)C3=O)cc1`, for which the GI50 in experiment [1] is 0.557 µM; in experiment [2], 0.712 µM; in [3], 0.313 µM; in experiment [4], 0.481 µM; in experiment [5], 1.02 µM; in [6], 0.578 µM. The GI50 is 0.275 µM in experiment [7], 0.206 µM in [8], 4.65 µM in experiment [9] and 1.57 µM in [10]. Also, the TGI in [1] is 1.07 µM; in experiment [2] it was 3.03 µM; in experiment [3], 1.68 µM; in [4], 0.943 µM; in [5], 13.6 µM; in [6], 1.27 µM. Moreover, the TGI in experiment [7] stood at 1.12 µM; in experiment [8] it was 0.563 µM; in experiment [9] it was 14.5 µM; in experiment [10], 3.65 µM.

On to `NC(Cn1ccc(=O)c(O)c1)C(=O)O` (stereo not drawn), for which the TGI in experiment [1], in experiment [2], in [4], in [5], in [6] and in experiment [7] was > 100 µM in each case. Also, the TGI in experiment [8], in experiment [9] and in experiment [10] was > 100 µM each time.

As for `Cc1cc2oc(=O)c(Cl)c(Cl)c2c(C)c1Cl`, the TGI was found to be 21.4 µM in experiment [1]; 23.5 µM in experiment [2]; 4.39 µM in experiment [3]; 6.03 µM in [4]; 9.64 µM in experiment [5]; 10.2 µM in experiment [6]. Besides, the TGI in experiment [8] worked out at 15.6 µM; in [9] it was 31.9 µM; in experiment [10], 8.09 µM.

With `O=c1[nH]cc(CO)c(=O)[nH]1`, the GI50 in [1], in [2], in [3], in [4], in [5] and in [6] was > 100 µM each time. In addition, the GI50 in experiment [7], in experiment [9] and in experiment [10] was > 100 µM each time. Also, the TGI in experiment [1], in [2], in [3], in experiment [4], in [5] and in [6] was > 100 µM throughout. Moreover, the TGI in [7], in experiment [9] and in experiment [10] was > 100 µM each time.

Regarding `COc1cc(-c2nccc3[nH]c(-c4cccc5[nH]ccc45)nc23)cc(OC)c1OC`, the GI50 in experiment [1], in [2], in experiment [5], in [6], in experiment [7] and in [8] was < 0.01 µM each time. Moreover, the GI50 in [10] is < 0.01 µM. Further, the TGI in experiment [1] stood at 0.0139 µM; in experiment [2], 14.4 µM; in [5], 23.9 µM; in experiment [6], 2.92 µM; in [7], 10.4 µM; in [8], 16.2 µM. Further, the TGI in [10] is < 0.01 µM.

`Nc1nc2c(c(=O)[nH]1)N=C(COP(=O)(O)OP(=O)(O)O)CN2`: the TGI in experiment [1], in experiment [2], in experiment [3], in experiment [4], in experiment [5] and in experiment [6] was > 100 µM in each case. The TGI in experiment [7], in experiment [9] and in [10] was > 100 µM throughout.

`CC[C@@]1(O)C(=O)OCc2c1cc1n(c2=O)Cc2cc3c(Cl)c4c(cc3nc2-1)OCO4`: the GI50 in experiment [1] is < 0.001 µM; in experiment [3], < 0.001 µM; in experiment [4], 0.0371 µM and 0.014 µM; in experiment [7], < 0.001 µM; in [9], < 0.001 µM; in [10], 1.05 µM. Also, the TGI in [1] was 0.0924 µM; in experiment [2], 0.193 µM; in [3] it was > 100 µM; in experiment [4] it was 2.22 µM and 0.23 µM; in experiment [5], > 100 µM; in experiment [6], > 100 µM. Moreover, the TGI in experiment [10] was > 100 µM.
